Measured values: patent EP0369733A2, “Fluorescent indicator dyes for alkali metal cations, their preparation and use” (THE REGENTS OF THE UNIVERSITY OF CALIFORNIA, priority 1988, dated 1990)

Assays:
[1] = Proton dissociation constants in 0.1 M tetramethylammonium chloride; conditions: 10 mM Tris titrated with 5 M H₃PO₄
Procedure: • Footnote a: For molecular structures, see Fig. 1. • Footnote b: Except where otherwise noted, these dissociation constants were measured with the chelator dissolved in 0.1 M tetramethylammonium chloride, at a pH held high enough with 1-5 mM tris(hydroxymethyl)aminomethane for protonation to be insignificant. […] No correction has been made for the changing ionic strength of the solution, which started from 0.1 M and increased, but the absorbances and fluorescence amplitudes were applied for dilution of the dye and any slight quenching due to high concentrations of Cl⁻. • Footnote c: These protonation constants were determined in 0.1 M tetramethylammonium chloride, 10 mM tris(hydroxymethyl)aminomethane, titrated with 5 M H₃PO₄ to successively lower pH values measured with a Radiometer PHM84 meter.
Proton dissociation constants of the chelators were measured by spectrophotometry or spectrofluorometry of buffered solutions, containing either 100 mM tetramethylammonium chloride as inert supporting electrolyte, or 121.5 mM K⁺, 13.5 mM Na⁺, and 1 mM Mg²⁺ to simulate the cation environment of vertebrate cytoplasm (14). Traces of UV-absorbing impurities in the tetramethylammonium chloride (Alfa Inorganics) were removed by filtration through acid-­washed activated charcoal. The concentration of the tetramethylammonium chloride was then measured by chloride titration, and the absence of significant Na⁺ contamination was verified with a sodium-selective glass electrode (Microelectrodes Inc.). When the chelators contained two protonatable nitrogens, the curve of absorbance or fluorescence versus pH was analyzed by computerized least-squares fitting to the equations for two arbitrary proton equilibria (15), with the added assumption that the two protonations each caused the same change in extinction coefficient or fluorescence.

[2] = physchem; conditions: 126 mm kcl, 14 mm nacl
Procedure: The lowest curve ([Na⁺] = 0) was obtained with 5 µM SBFI in 130 mM KCl, 10 mM MOPS, KOH to pH 7.05, approximately 135 mM total K⁺. The highest curve ([Na⁺] = 135 mM) was analogously recorded from 5 µM SBFI in 130 mM NaCl, 10 mM MOPS, NaOH to pH 7.05. The intermediate curves from 1.35 to 94.5 mM Na⁺ were obtained by successively 1/100, 1/99, 3/98, 1/19, 1/9, 1/4, and 1/2 of the K⁺-rich SBFI solution by the SBFI in Na medium. The excitation bandwidth was 1.85 nm; emission was collected at 500 nm with 9.3 nm bandwidth. […] The lowest curve was obtained in 130 mM NaCl, 10 mM MOPS, NaOH to pH 7.05. The highest curve was in 130 mM KCl, 10 mM MOPS, KOH to pH 7.05. The intermediate curves with 13.5 to 112.5 mM K⁺ were obtained by iteratively replacing 1/10, 1/9, 1/6, 1/4, 1/3, and 1/2 of the low K⁺ medium by the 135 mM KCl solution of PBFP.
Proton dissociation constants of the chelators were measured by spectrophotometry or spectrofluorometry of buffered solutions, containing either 100 mM tetramethylammonium chloride as inert supporting electrolyte, or 121.5 mM K⁺, 13.5 mM Na⁺, and 1 mM Mg²⁺ to simulate the cation environment of vertebrate cytoplasm (14). […] When the chelators contained two protonatable nitrogens, the curve of absorbance or fluorescence versus pH was analyzed by computerized least-squares fitting to the equations for two arbitrary proton equilibria (15), with the added assumption that the two protonations each caused the same change in extinction coefficient or fluorescence. This assumption was based on the presence of two identical chromophores in each chelator and produced good fits to the experimental data.

[3] = Cation titration followed by absorbance or fluorescence excitation spectra: Ca²⁺ binding; conditions: 0.1 M tetramethylammonium chloride, 1-5 mM tris(hydroxymethyl)aminomethane, high pH, read-out: Dissociation constants (Kd) in mM for Ca²⁺
Procedure: (§1) • Footnote a: For molecular structures, see Fig. 1. • Footnote b: Except where otherwise noted, these dissociation constants were measured with the chelator dissolved in 0.1 M tetramethylammonium chloride, at a pH held high enough with 1-5 mM tris(hydroxymethyl)aminomethane for protonation to be insignificant. The absorbance spectrum, or the fluorescence excitation spectrum for those compounds (2GG, 2NN, 2OO, 2PP, 3NN) with acronyms was measured as a function of the concentration of cation added as a solid or concentrated aqueous solution of the halide salt. No correction has been made for the changing ionic strength of the solution, which started from 0.1 M and increased, but the absorbances and fluorescence amplitudes were applied for dilution of the dye and any slight quenching due to high concentrations of Cl⁻. • Footnote c: These protonation constants were determined in 0.1 M tetramethylammonium chloride, 10 mM tris(hydroxymethyl)aminomethane, titrated with 5 M H₃PO₄ to successively lower pH values measured with a Radiometer PHM84 meter. […] The first number is the wavelength in nanometers, followed in parentheses by 10⁻³ x the corresponding extinction coefficient, M⁻¹cm⁻¹. […] Emission maxima are not corrected for the spectral sensitivity of the emission detection. Quantum efficiencies were measured (13) by comparing the integral of the corrected emission spectrum with the corresponding integral for a solution of quinine bisulfate in 1 N H₂SO₄ of matched absorbance at the excitation wavelength.
(§2) Affinities for other cations were usually measured by titrating aqueous solutions of the indicator with metal chlorides added either as solid or from concentrated stock solutions, taking care to minimize dilution and correct for it. A convenient way to mass-produce premeasured micromole to millimole aliquots of solid NaCl or KCl was to pipet saline solutions into polypropylene micro test tubes and evaporate the water in an oven. The standard ionic background was again 100 mM tetramethylammonium chloride, usually with a few mM of tris(hydroxymethyl)-aminomethane base to hold the pH high enough (pH 8-9) to insure that protonation was negligible. This convenient titration procedure had the slight disadvantage that the ionic strength was not constant, especially when large quantities of a salt had to be added due to weak affinities. […] When constant ionic strength was desired, the chelator was made up at identical concentrations in matched solutions of NaCl, KCl, or tetramethylammonium chloride, then these stocks were mixed in the desired proportions. All measurements were made at room temperature (22°, ±2° C).

[4] = Effective Kd for Na⁺ against a K⁺ background; type: binding
Procedure: For comparison, Lehn's cryptand [2.2.1] (see ref. 5) is shown in the upper left hand corner. Below cryptand [2.2.1] are three generic types of crown ethers that have been prepared for use in the making some of the compounds of the present invention. To the right of the vertical dividing line are examples of some of the aromatic and heterocyclic substituents that can be attached to the nitrogens of the crown ethers. […] The lowest curve ([Na⁺] = 0) was obtained with 5 µM SBFI in 130 mM KCl, 10 mM MOPS, KOH to pH 7.05, approximately 135 mM total K⁺. The highest curve ([Na⁺] = 135 mM) was analogously recorded from 5 µM SBFI in 130 mM NaCl, 10 mM MOPS, NaOH to pH 7.05. […]
• Footnote a: For molecular structures, see Fig. 1. • Footnote b: Except where otherwise noted, these dissociation constants were measured with the chelator dissolved in 0.1 M tetramethylammonium chloride, at a pH held high enough with 1-5 mM tris(hydroxymethyl)aminomethane for protonation to be insignificant. The absorbance spectrum, or the fluorescence excitation spectrum for those compounds (2GG, 2NN, 2OO, 2PP, 3NN) with acronyms was measured as a function of the concentration of cation added as a solid or concentrated aqueous solution of the halide salt. […]

[5] = Cation titration followed by absorbance or fluorescence excitation spectra: Mg²⁺ binding; conditions: 0.1 M tetramethylammonium chloride, 1-5 mM tris(hydroxymethyl)aminomethane, high pH, read-out: Dissociation constants (Kd) in mM for Mg²⁺
Procedure: as §1
as §2, with “proportions.” for “proportions. All measurements were made at room temperature (22°, ±2° C).”

pKa ([1]; first value printed (highest pKa, 1st proton), listed as 2PP (SBFI)): 5.89 | pKa ([1]; second value (second protonation)): 5.19 | pKa [2]: 6.09 | Kd ([3]; listed as 2PP (SBFI)): 38 mM | Kd ([3]; listed as SBFI): ~38 mM | Kd ([4]; Na⁺-K⁺ mixtures, sum held constant at 135 mM, 1 mM Mg²⁺ present, pH 7.05, read-out: apparent dissociation constant for Na⁺): 17 to 19 mM | Kd ([4]; [Na⁺]+[K⁺] = 280 mM (cytoplasm of marine organisms), read-out: effective Kd for SBFI-Na⁺): 28 mM | Kd ([5]; listed as 2PP (SBFI)): 60 mM | Kd ([5]; listed as SBFI): ~60 mM
SMILES: COc1cc2cc(-c3ccc(C(=O)O)cc3C(=O)O)oc2cc1N1CCOCCOCCN(c2cc3oc(-c4ccc(C(=O)O)cc4C(=O)O)cc3cc2OC)CCOCC1 [Compound 2PP, N,N-bis-(2-(2,4-dicarboxyphenyl)-5-methoxybenzofuran-6-yl)-diaza[15]-crown-5]
